From patent US20240368174A1, “Antiviral Heterocyclic Compounds” (Enanta Pharmaceuticals, Inc., priority 2023, published 2024)

Tests used:
[1] = tested on: HMPV clinical isolate A2 strain TN 94-49; assay: HMPV antiviral assay, Method 2 (LLC-MK2 cells with CP-100-356, ATP-Lite); format: cell-based; details: human metapneumovirus
Method in brief: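 LLC-MK2 rhesus kidney cells (5,000/well) infected in suspension with HMPV A2 TN 94-49 at MOI 0.16, in serum-free medium with final 2 μg/mL TPCK-trypsin and 2 μM CP-100-356. Compounds tested in duplicate from 200 nM, 2.5-fold, 10 points; 7 days at 37 °C. Cell health by ATP-Lite luminescence; EC50 by four-parameter fit.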

[2] = tested on: genotype A, “Long” strain RSV; assay: RSV-A assay (CPE, ATPlite readout in Hep-2 cells); format: cell-based, Human respiratory syncytial virus; details: human respiratory syncytial virus, activity class
Method in brief: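 Hep-2, 8,000 cells/well, MOI 0.1 (PFU- or TCID50-based); 2-fold compound series, duplicates; 5 d incubation; ATPlite luminescence readout; EC50.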

[3] = hMPV A2 TN/94-49, LLC-MK2 cells with CP-100-356, Method 2
[4] = 168 h, hMPV A2 TN/94-49, LLC-MK2 cells with 4 μM CP-100-356, 7 days, ATP-Lite

Row | Compound | EC50 [1, 3] [nM] | EC50 [2] [nM] | EC50 [1, 4] [nM]
1 | COc1cc(C(=O)NC[C@](O)(c2cc3c(c(-c4ccnc(F)c4Cl)n2)OC[C@]3(C)C(N)=O)C(F)(F)F)cc2cn(C(F)F)nc12 [Example 380] | < 200 | < 200 | –
2 | COc1cc(C(=O)NC[C@](O)(c2cc3c(c(-n4ccc5c(F)cccc54)n2)OC[C@]3(C)C(N)=O)C2(F)CC2)cc2cn(C3CC3)nc12 [Example 861] | – | < 200 | < 200
3 | COc1cc(C(=O)NCC(O)(CC2CC2)c2cc3c(c(-c4cc(Cl)c(F)cc4F)n2)OC[C@]3(C)C(N)=O)cc2cn(C3CC3)nc12 (stereo partly drawn) [Example 239] | > 200 | < 200 | –
4 | COc1cc(C(=O)NC[C@](O)(c2cc3c(c(-c4cncc(OC(F)F)c4Cl)n2)OC[C@]3(C)C(N)=O)C2CC2)cc2cn(C(F)F)nc12 [Example 742] | – | < 200 | < 200
5 | COc1cc(C(=O)NC[C@@](O)(c2cccc(F)c2)c2cc3c(c(-c4ccnc(F)c4Cl)n2)OC[C@]3(C)C(N)=O)cc2cn(C3CC3)nc12 [Example 407] | < 200 | < 200 | –
6 | COc1cc(C(=O)N(C)C[C@](O)(c2cc3c(c(-c4ccc(F)c(Cl)c4)n2)OC[C@@]3(C(N)=O)C(F)F)C2CC2)cc2cn(C3CC3)nc12 [Example 351] | > 200 | > 200 | –
7 | C[C@]1(C(N)=O)COc2c1cc([C@@](O)(CNC(=O)c1cc(OCCO)c3nn(C4CC4)cc3c1)C1CC1)nc2-c1ccc2c(c1Cl)OC(F)(F)O2 [Example 681] | – | < 200 | < 200
8 | COc1cc(C(=O)NC[C@](O)(c2cc3c(c(-c4ccsc4Cl)n2)OC[C@]3(C)C(N)=O)C2CC2)cc2cn(C3CC3)nc12 [Example 415] | < 200 | < 200 | –
9 | COc1cc(C(=O)NC[C@](O)(c2cc3c(c(-c4cccc(F)c4Cl)n2)OC[C@]3(C)C(N)=O)C(F)(F)F)cc2cn(C3(F)CC3)nc12 [Example 611] | < 200 | < 200 | –
10 | COc1cc(C(=O)NC[C@](O)(c2cc3c(c(-c4csc(Cl)c4)n2)OC[C@]3(C)C(N)=O)C2CC2)cc2cn(C3CC3)nc12 [Example 416] | < 200 | < 200 | –
11 | COc1cc(C(=O)NC[C@@](O)(c2ccccc2)c2cc3c(c(-c4ccnc(F)c4Cl)n2)OC[C@]3(C)C(N)=O)cc2cn(C3(F)CC3)nc12 [Example 344] | < 200 | < 200 | –
12 | COc1cc(C(=O)NC[C@](O)(c2cc3c(c(-c4cc(C(F)(F)F)c(F)cc4F)n2)OC[C@]3(C)C(N)=O)C2CC2)cc2cn(C(F)F)nc12 [Example 310] | < 200 | < 200 | –
13 | COc1cc(C(=O)NC[C@](O)(c2cc3c(c(-c4ccnc(C(F)F)c4Cl)n2)OC[C@]3(C)C(N)=O)C2CC2)cc2cn(C3(F)CC3)nc12 [Example 786] | – | < 200 | < 200
14 | COc1cc(C(=O)NC[C@](O)(c2cc3c(c(-c4ccsc4)n2)OC[C@]3(C)C(N)=O)C2CC2)cc2cn(C3CC3)nc12 [Example 413] | < 200 | < 200 | –
15 | COc1cc(C(=O)NC[C@](O)(c2cc3c(c(-c4ccnc(C(F)F)c4Cl)n2)OC[C@]3(C)C(N)=O)C2CC2)cc2cn(C3CC3)nc12 [Example 780] | – | < 200 | < 200
16 | COc1nccc(-c2nc([C@@](O)(CNC(=O)c3cc(OC)c4nc(C5CC5)oc4c3)C3CC3)cc3c2OC[C@]3(C)C(N)=O)c1Cl [Example 745] | – | < 200 | < 200
17 | COc1cc(C(=O)NC[C@](O)(c2cc3c(c(-c4ccnc(C(F)(F)F)c4Cl)n2)OC[C@]3(C)C(N)=O)C(F)(F)F)cc2cn(C3(F)CC3)nc12 [Example 534] | < 200 | < 200 | –
18 | COc1cc(C(=O)NC[C@](O)(c2cc3c(c(-c4ccn5nccc5c4Cl)n2)OC[C@]3(C)C(N)=O)C2CC2)cc2cn(C3CC3)nc12 [Example 824] | – | < 200 | < 200
19 | COc1cc(C(=O)NC[C@@](O)(c2ccccc2)c2cc3c(c(-c4ccnc(F)c4Cl)n2)OC[C@]3(C)C(N)=O)cc2oc(C3CC3)nc12 [Example 345] | < 200 | < 200 | –
20 | C[C@]1(C(N)=O)COc2c1cc([C@@](O)(CNC(=O)c1cc(Cl)c3[nH]ncc3c1)C1CC1)nc2-c1cc(F)c(F)cc1F [Example 119] | > 200 | < 200 | –
21 | COc1cc(C(=O)NC[C@@](O)(c2ccccc2)c2cc3c(c(-n4ncc5c(F)cccc54)n2)OC[C@]3(C)C(N)=O)cc2cn(C3(F)CC3)nc12 [Example 629] | – | < 200 | < 200
22 | COc1cc(C(=O)NC[C@](O)(c2cc3c(c(-n4ccc5c(F)cccc54)n2)OC[C@]3(C)C(N)=O)C2CC2)cc2oc(C3CC3)nc12 [Example 778] | – | < 200 | < 200
23 | COc1cc(C(=O)NC[C@](O)(c2cc3c(c(-n4ccc5c(F)cccc54)n2)OC[C@]3(C)C(N)=O)C2CC2)cc2cn(C3(F)CC3)nc12 [Example 777] | – | < 200 | < 200
24 | COc1cc(C(=O)NC[C@](O)(c2cc3c(c(-c4ccnc(C(F)(F)F)c4Cl)n2)OC[C@]3(C)C(N)=O)C2CC2)cc2cn(C3(F)CC3)nc12 [Example 760] | – | < 200 | < 200
25 | COc1nccc(-c2nc([C@@](O)(CNC(=O)c3cc(OC)c4nn(C(F)F)cc4c3)C3CC3)cc3c2OC[C@]3(C)C(N)=O)c1Cl [Example 788] | – | < 200 | < 200
26 | C[C@]1(C(N)=O)COc2c1cc([C@@](O)(CNC(=O)c1ccc3nc(C4CC4)oc3c1)C1CC1)nc2-c1cc(C(F)(F)F)c(F)cc1F [Example 306] | < 200 | < 200 | –
27 | COc1cc(C(=O)NC[C@](O)(c2cc3c(c(-c4ccc(F)c(Cl)c4Cl)n2)OC[C@]3(C)C(N)=O)C2CC2)cc2cc(C3CC3)nn12 [Example 324] | < 200 | < 200 | –
28 | C[C@]1(C(N)=O)COc2c1cc([C@@](O)(CNC(=O)c1cc(OC3CC3)c3ncc(Cl)cc3c1)C1CC1)nc2-c1ccc2c(c1Cl)OC(F)(F)O2 [Example 106] | < 200 | < 200 | –

Further lines, results first:

Row | EC50 [1, 3] [nM] | EC50 [2] [nM] | EC50 [1, 4] [nM] | Compound
29 | < 200 | < 200 | – | COc1cc(C(=O)NC[C@](O)(c2cc3c(c(-c4ccnc(C(F)(F)F)c4Cl)n2)OC[C@]3(C)C(N)=O)C2CC2)cc2oc(C(F)F)nc12 [Example 581]
30 | – | < 200 | < 200 | COc1cc(C(=O)NC[C@](O)(c2cc3c(c(-c4cc(C(F)(F)F)ncc4F)n2)OC[C@]3(C)C(N)=O)C2(F)CC2)cc2oc(C3CC3)nc12 [Example 670]
31 | < 200 | < 200 | – | COc1cc(C(=O)NC[C@](O)(c2cc3c(c(-c4cscc4C)n2)OC[C@]3(C)C(N)=O)C2CC2)cc2cn(C3CC3)nc12 [Example 414]
32 | – | < 200 | < 200 | COc1nccc(-c2nc([C@@](O)(CNC(=O)c3cc(OC)c4nn(C5(F)CC5)cc4c3)C3CC3)cc3c2OC[C@]3(C)C(N)=O)c1Cl [Example 789]
33 | < 200 | < 200 | – | COc1cc(C(=O)NC[C@](O)(c2cc3c(c(-c4ccc(F)c(Cl)c4Cl)n2)OC[C@]3(C)C(N)=O)C2CC2)cc2cn(C(F)F)nc12 [Example 323]
34 | – | < 200 | < 200 | COc1cc(C(=O)NC[C@@](O)(c2ccccc2)c2cc3c(c(-n4ncc5c(F)cccc54)n2)OC[C@]3(C)C(N)=O)cc2cn(C3CC3)nc12 [Example 628]
35 | > 200 | > 200 | – | CNCC1([C@](O)(CNC(=O)c2cc(OC)c3nn(C4CC4)cc3c2)c2cc3c(c(-c4cc(Cl)c(F)cc4F)n2)OC[C@]3(C)C(N)=O)CC1 [Example 211]
36 | < 200 | < 200 | – | COc1cc(C(=O)NC[C@](O)(c2cc3c(c(-c4cc(C(F)(F)F)ncc4F)n2)OC[C@]3(C)C(N)=O)C2CC2)cc2oc(C3CC3)nc12 [Example 349]
37 | – | < 200 | < 200 | COc1cc(C(=O)NC[C@](O)(c2cc3c(c(-c4ccnc(C5CC5)c4Cl)n2)OC[C@]3(C)C(N)=O)C2CC2)cc2cn(C3CC3)nc12 [Example 721]
38 | – | < 200 | < 200 | COc1cc(C(=O)NC[C@](O)(c2cc3c(c(-c4ccnc(C(F)(F)F)c4Cl)n2)OC[C@]3(C)C(N)=O)C2CC2)cc2cn(C(F)F)nc12 [Example 758]
39 | – | < 200 | < 200 | COc1cc(C(=O)NC[C@](O)(c2cc3c(c(-c4ccnc(C(F)(F)F)c4F)n2)OC[C@]3(C)C(N)=O)C2CC2)cc2cn(C3CC3)nc12 [Example 794]
40 | < 200 | < 200 | – | COc1nccc(-c2nc([C@@](O)(CNC(=O)c3cc(OC)n4nc(C5CC5)cc4c3)C3CC3)cc3c2OC[C@]3(C)C(N)=O)c1Cl [Example 582]
41 | – | < 200 | < 200 | COc1cc(C(=O)NC[C@](O)(c2cc3c(c(-c4cc(C(F)(F)F)ncc4F)n2)OC[C@]3(C)C(N)=O)C2CC2)cc2cc(C3CC3)nn12 [Example 661]
42 | < 200 | < 200 | – | COc1cc(C(=O)NC[C@](O)(c2cc3c(c(-c4ccnc(C(F)F)c4Cl)n2)OC[C@]3(C)C(N)=O)C2CC2)cc2oc(C(F)F)nc12 [Example 542]
43 | < 200 | < 200 | – | COc1cc(C(=O)NC[C@](O)(c2cc3c(c(-c4cc(C(F)(F)F)c(F)cc4F)n2)OC[C@]3(C)C(N)=O)C2CC2)cc2cc(C3CC3)nn12 [Example 327]
44 | < 200 | < 200 | – | COc1cc(C(=O)NC[C@](O)(c2cc3c(c(-c4cc(C(F)(F)F)ncc4F)n2)OC[C@]3(C)C(N)=O)C2CC2)cc2cn(C3(F)CC3)nc12 [Example 348]
45 | < 200 | < 200 | – | COc1cc(C(=O)NC[C@](O)(c2cc3c(c(-c4ccnc(C(F)F)c4Cl)n2)OC[C@]3(C)C(N)=O)C(F)(F)F)cc2cn(C3(F)CC3)nc12 [Example 548]
